Results as given in PMC5428354, “Screening of a natural compound library identifies emodin, a natural compound from Rheum palmatum Linn that inhibits DPP4” (PeerJ, 2017).
Where two headings read alike, the source gives them in different places.

Target: DPP4 (Homo sapiens, UniProt P27487)
Assay: DPP4 activity assay (DPP4 inhibitor screening assay kit, Cayman);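 further: fluorescence read at excitation 360 nm and emission 460 nm after the enzyme reaction ran 30 min at 37 °C in a 96-well plate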
Assay type: biochemical
Set-up: purchased Cayman Chemical, Ann Arbor, MI, USA
Details: control mean 100.0; for remaining activity at 10 µM: 0.5 h
[1] = 10 µM, Figure 1A raw data, read-out: DPP4 activity in library screen, Exp 1
[2] = 10 µM, Figure 1A raw data, read-out: DPP4 activity in library screen, Exp 2
[3] = 10 µM, Figure 1A raw data, read-out: DPP4 activity in library screen, Exp 3
[4] = 10 µM, mean of Exp 1-3, read-out: DPP4 activity in library screen, Mean

Sequence of DPP4 (P27487 whole entry): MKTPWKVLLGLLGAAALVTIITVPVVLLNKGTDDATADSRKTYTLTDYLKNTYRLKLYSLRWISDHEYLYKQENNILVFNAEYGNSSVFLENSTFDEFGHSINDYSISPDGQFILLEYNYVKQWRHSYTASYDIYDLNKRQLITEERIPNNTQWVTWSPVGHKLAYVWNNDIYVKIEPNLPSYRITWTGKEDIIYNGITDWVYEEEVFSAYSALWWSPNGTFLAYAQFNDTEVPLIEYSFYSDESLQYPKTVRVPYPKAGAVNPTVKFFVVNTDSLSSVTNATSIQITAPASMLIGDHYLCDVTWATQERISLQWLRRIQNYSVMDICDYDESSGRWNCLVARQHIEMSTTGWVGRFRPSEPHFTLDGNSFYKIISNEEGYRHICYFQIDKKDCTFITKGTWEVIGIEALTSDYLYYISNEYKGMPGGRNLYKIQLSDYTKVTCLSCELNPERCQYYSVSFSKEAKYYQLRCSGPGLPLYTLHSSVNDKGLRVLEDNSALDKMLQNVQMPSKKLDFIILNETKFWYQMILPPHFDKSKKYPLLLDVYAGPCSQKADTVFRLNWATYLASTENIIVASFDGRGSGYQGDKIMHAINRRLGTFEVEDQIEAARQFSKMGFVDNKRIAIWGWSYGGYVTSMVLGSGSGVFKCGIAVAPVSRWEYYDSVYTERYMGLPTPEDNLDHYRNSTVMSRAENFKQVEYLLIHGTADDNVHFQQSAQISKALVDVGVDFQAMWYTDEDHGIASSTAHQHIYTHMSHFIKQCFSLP

Row | SMILES | remaining activity at 10 µM [1] [%] | remaining activity at 10 µM [2] [%] | remaining activity at 10 µM [3] [%] | remaining activity at 10 µM [4] [%] | other results
1 | CC1=C(CC/C(C)=C/CCC2=CC[C@H](C3=CC(=O)O[C@H]3O)O[C@H]2O)C(C)(C)CCC1 [Manoalide] | 102 | 112 | 125 | 113 | 
2 | C[C@H]1C(=O)O[C@@H]2CCN3CC=C(COC(=O)[C@](C)(O)[C@]1(C)O)[C@H]23 [Monocrotaline] | 70.9 | 95.8 | 85.1 | 83.9 | 
3 | O.O=c1c(O)c(-c2ccc(O)cc2O)oc2cc(O)cc(O)c12 [Morin Hydrate] |  |  |  |  | DPP4 activity in library screen, Exp 1 (10 µM, Figure 1A raw data): 79.5; DPP4 activity in library screen, Exp 2 (10 µM, Figure 1A raw data): 73.7; DPP4 activity in library screen, Exp 3 (10 µM, Figure 1A raw data): 79.4; DPP4 activity in library screen, Mean (10 µM, mean of Exp 1-3): 77.5
4 | O=c1c(O)c(-c2cc(O)c(O)c(O)c2)oc2cc(O)cc(O)c12 [Myricetin] |  |  |  |  | DPP4 activity in library screen, Exp 2 (10 µM, Figure 1A raw data): 57.5; DPP4 activity in library screen, Mean (10 µM, mean of Exp 1-3): 57.9
5 | C[C@@H]1O[C@@H](O[C@H]2[C@H](Oc3cc(O)c(C(=O)CCc4ccc(O)cc4)c(O)c3)O[C@H](CO)[C@@H](O)[C@@H]2O)[C@H](O)[C@H](O)[C@H]1O [Naringin Dihydrochalcone] |  |  |  |  | DPP4 activity in library screen, Exp 1 (10 µM, Figure 1A raw data): 84.3; DPP4 activity in library screen, Exp 2 (10 µM, Figure 1A raw data): 82.4; DPP4 activity in library screen, Exp 3 (10 µM, Figure 1A raw data): 91.6; DPP4 activity in library screen, Mean (10 µM, mean of Exp 1-3): 86.1
6 | C[C@@H]1O[C@@H](O[C@H]2[C@H](Oc3cc(O)c4c(c3)O[C@H](c3ccc(O)cc3)CC4=O)O[C@H](CO)[C@@H](O)[C@@H]2O)[C@H](O)[C@H](O)[C@H]1O [Naringin] | 116 | 82.6 | 68.6 | 89.2 | 
7 | COc1ccc(CCC(=O)c2c(O)cc(O[C@@H]3O[C@H](CO)[C@@H](O)[C@H](O)[C@H]3O[C@@H]3O[C@@H](C)[C@H](O)[C@@H](O)[C@H]3O)cc2O)cc1O [Neohesperidin dihydrochalcone (Nhdc), Neohesperidin dihydrochalcone] | 90.3 | 78 | 91.2 | 86.5 | 
8 | COc1ccc([C@@H]2CC(=O)c3c(O)cc(O[C@@H]4O[C@H](CO)[C@@H](O)[C@H](O)[C@H]4O[C@@H]4O[C@@H](C)[C@H](O)[C@@H](O)[C@H]4O)cc3O2)cc1O [Neohesperidin] |  |  |  |  | DPP4 activity in library screen, Exp 1 (10 µM, Figure 1A raw data): 93.8; DPP4 activity in library screen, Exp 2 (10 µM, Figure 1A raw data): 90.3; DPP4 activity in library screen, Exp 3 (10 µM, Figure 1A raw data): 71.8; DPP4 activity in library screen, Mean (10 µM, mean of Exp 1-3): 85.3
9 | COc1ccc(-c2cc(=O)c3c(OC)c(OC)c(OC)c(OC)c3o2)cc1OC [Nobiletin] | 81.7 | 69.9 | 67.6 | 73.1 | 
10 | COc1cc2c(cc1O)C[C@@H]1NCCc3cc(OC)c(O)c-2c31 [Norisoboldine] |  |  |  |  | DPP4 activity in library screen, Exp 1 (10 µM, Figure 1A raw data): 95.3; DPP4 activity in library screen, Exp 2 (10 µM, Figure 1A raw data): 99.3; DPP4 activity in library screen, Exp 3 (10 µM, Figure 1A raw data): 71; DPP4 activity in library screen, Mean (10 µM, mean of Exp 1-3): 88.5
11 | C=C1C(=O)[C@]23[C@H](O)[C@H]1CC[C@H]2[C@@]12CO[C@]3(O)[C@@H](O)[C@@H]1C(C)(C)CC[C@@H]2O [Oridonin] | 81 | 85.4 | 96.9 | 87.8 | 
12 | O=C(O)c1cc(=O)[nH]c(=O)[nH]1 [Orotic acid (6-Carboxyuracil), Orotic acid] | 83.5 | 88 | 95.5 | 89 | 
13 | O=C1CCC[C@@H]2[C@H]3CCC[N+]4([O-])CCC[C@@H](CN12)[C@@H]34 (some centres unmarked) [Oxymatrine] | 106 | 103 | 83.7 | 97.6 | 
14 | COc1cc2c(cc1OC)-c1cc3ccc(OC)c(OC)c3c[n+]1CC2 [Palmatine chloride] |  |  |  |  | remaining activity at 10 µM (read-out: DPP4 activity in library screen, Exp 1, 10 µM, Figure 1A raw data): 49.5%; remaining activity at 10 µM (read-out: DPP4 activity in library screen, Exp 2, 10 µM, Figure 1A raw data): 48.9%; remaining activity at 10 µM (read-out: DPP4 activity in library screen, Exp 3, 10 µM, Figure 1A raw data): 43.9%; remaining activity at 10 µM (read-out: DPP4 activity in library screen, Mean, 10 µM, mean of Exp 1-3): 47.4%
15 | O=C(CCc1ccc(O)cc1)c1c(O)cc(O)cc1O [Phloretin] | 78.9 | 90.5 | 55.2 | 74.9 | 
16 | O=C(/C=C/C=C/c1ccc2c(c1)OCO2)N1CCCCC1 [Piperine] | 67.7 | 60.2 | 77.8 | 68.6 | 
17 | O=c1c(O)c(-c2ccc(O)c(O)c2)oc2cc(O)cc(O)c12 [Quercetin Dihydrate] |  |  |  |  | DPP4 activity in library screen, Exp 1 (10 µM, Figure 1A raw data): 59.9; DPP4 activity in library screen, Exp 2 (10 µM, Figure 1A raw data): 57; DPP4 activity in library screen, Exp 3 (10 µM, Figure 1A raw data): 57.1; DPP4 activity in library screen, Mean (10 µM, mean of Exp 1-3): 58.0
18 | O=c1c(O)c(-c2ccc(O)c(O)c2)oc2cc(O)cc(O)c12 [Quercetin] | 62.7 | 62.1 | 72.1 | 65.6 | 
19 | COc1ccc([C@@]23Oc4cc(OC)cc(OC)c4[C@]2(O)[C@H](O)[C@H](C(=O)N(C)C)[C@H]3c2ccccc2)cc1 [Rocaglamide] | 100 | 100 | 94.9 | 98.5 | 
20 | COc1cc2c(cc1OC)[C@@H]1Cc3ccc(OC)c(OC)c3CN1CC2 [Rotundine] | 103 | 99.8 | 104 | 102 | 
21 | C[C@@H]1O[C@@H](OC[C@H]2O[C@@H](Oc3c(-c4ccc(O)c(O)c4)oc4cc(O)cc(O)c4c3=O)[C@H](O)[C@@H](O)[C@@H]2O)[C@H](O)[C@H](O)[C@H]1O [Rutin] | 78.7 | 73.8 | 50.1 | 67.5 | 
22 | C=C[C@](C)(O)CC[C@@H]1[C@@]2(C)CCCC(C)(C)[C@@H]2CC[C@@]1(C)O [Sclareol] | 80.9 | 99.9 | 71.4 | 84.1 | 
23 | CC1(C)CCC[C@]2(C)[C@H]3CC(=O)O[C@]3(C)CC[C@@H]12 [Sclareolide] |  |  |  |  | DPP4 activity in library screen, Exp 1 (10 µM, Figure 1A raw data): 95.1; DPP4 activity in library screen, Exp 2 (10 µM, Figure 1A raw data): 80.7; DPP4 activity in library screen, Exp 3 (10 µM, Figure 1A raw data): 80.2; DPP4 activity in library screen, Mean (10 µM, mean of Exp 1-3): 85.3
24 | c1cc2c(cc1[C@H]1OC[C@H]3[C@@H]1CO[C@@H]3c1ccc3c(c1)OCO3)OCO2 [Sesamin] | 93.7 | 90 | 85.5 | 89.7 | 

Now from value to molecule, other results behind:

Row | remaining activity at 10 µM [1] [%] | remaining activity at 10 µM [2] [%] | remaining activity at 10 µM [3] [%] | remaining activity at 10 µM [4] [%] | SMILES | other results
25 | 95.6 | 94.7 | 93.5 | 94.6 | CCn1cc(C(=O)O)c(=O)c2ccc(C)nc21 [Nalidixic acid] | 
26 | 80.4 | 87.5 | 94.1 | 87.3 | O=C1C[C@@H](c2ccc(O)cc2)Oc2cc(O)cc(O)c21 [Naringenin] | 
27 | 77.8 | 99.1 | 116 | 97.8 | Cc1c(C(=O)NCCO)[n+]([O-])c2ccccc2[n+]1[O-] [Olaquindox] | 
28 | 117 | 101 | 93.4 | 104 | C/C=C1/[C@H](O[C@@H]2O[C@H](CO)[C@@H](O)[C@H](O)[C@H]2O)OC=C(C(=O)OC)[C@H]1CC(=O)OCCc1ccc(O)c(O)c1 [Oleuropein] | 
29 | 93.1 | 95.2 | 87.3 | 91.9 | COc1ccc2ccc(=O)oc2c1CC=C(C)C [Osthole] | 
30 | 80.3 | 92.8 | 99.9 | 91 | COc1ccc(C(C)=O)c(O)c1 [Paeonol] | 
31 | 63.2 | 86.5 | 114 | 87.8 | O=C(CCc1ccc(O)cc1)c1c(O)cc(O)cc1O[C@@H]1O[C@H](CO)[C@@H](O)[C@H](O)[C@H]1O [Phlorizin] | 
32 | 89.6 | 81.3 | 70 | 80.3 | OC[C@H]1O[C@@H](Oc2cc(O)cc(/C=C/c3ccc(O)cc3)c2)[C@H](O)[C@@H](O)[C@@H]1O [Polydatin] | 
33 | 94.4 | 98 | 93.8 | 95.4 | O=c1c(-c2ccc(O)cc2)coc2c([C@@H]3O[C@H](CO)[C@@H](O)[C@H](O)[C@H]3O)c(O)ccc12 [Puerarin] | 
34 | 71.3 | 78.6 | 71.4 | 73.8 | O=c1c2ccccc2nc2n1CCc1c-2[nH]c2ccccc12 [Rutaecarpine] | 
35 | 93.4 | 98.3 | 118 | 103 | C[C@H](NCc1ccc(OCc2cccc(F)c2)cc1)C(N)=O [Safinamide] | 
36 | 72 | 94.5 | 87.9 | 84.8 | OCc1ccccc1O[C@@H]1O[C@H](CO)[C@@H](O)[C@H](O)[C@H]1O [Salicin] | 
37 | 97.1 | 97.1 | 113 | 102 | OC[C@H]1O[C@@H](OCCc2ccc(O)cc2)[C@H](O)[C@@H](O)[C@@H]1O [Salidroside] | 
